# Target: γ-secretase (Homo sapiens, UniProt P49768)
# Assay: in vitro assay of γ-secretase activity (HEK293 membrane fraction, recombinant APP substrate, Abeta ELISA)
# Assay type: biochemical
# Details: γ-secretase inhibition; HEK293 membrane fraction as source of γ-secretase, recombinant C-terminal 100 amino acids of human APP as substrate, Abeta detected by ELISA
# Source text: Description of γ-secretase Assay
# The activity of test compounds can be evaluated in assays which measure the proteolytic cleavage of suitable substrates by γ-secretase activity. These can be cellular assays where e.g., a substrate of γ-secretase is fused in its cytoplasmic domain to a transcription factor. Cells are transfected with this fusion gene and a reporter gene, e.g., firefly luciferase, which expression is enhanced by the transcription factor. Cleavage of the fused substrate by γ-secretase will lead to expression of the reporter gene which can be monitored in appropriate assays. The γ-secretase activity can also be determined in cell-free in vitro assays where e.g., a cell lysate containing the γ-secretase complex is incubated with a suitable APP-derived substrate which is cleaved to the Abeta peptides. The amount of produced peptides can be determined with specific ELISA assays. Cell lines of neuronal origin secrete Abeta peptides which can be measured with the specific ELISA assay. Treatment with compounds which inhibit γ-secretase leads to a reduction of secreted Abeta thus providing a measure of inhibition.
# The in vitro assay of γ-secretase activity uses a HEK293 membrane fraction as a source of γ-secretase and a recombinant APP substrate. The latter consists of the C-terminal 100 amino acids of human APP fused to a 6×Histidin tail for purification which is expressed in E. coli in a regulatable expression vector, e.g. pEt15. This recombinant protein corresponds to the truncated APP fragment which results after […] of the extracellular domain and which constitutes the γ-secretase substrate. The assay principle is described in Li Y M et al, PNAS 97(11), 6138-6143 (2000). Hek293 cells are mechanically disrupted, and the microsomal fraction is isolated by differential centrifugation. The membranes are solubilized in detergent (0.25% CHAPSO) and incubated with the APP substrate. The Abeta peptides which are produced by γ-secretase cleavage of the substrate are detected by specific ELISA assays as described (Brockhaus M et al, Neuroreport 9(7), 1481-1486 (1998).
# The preferred compounds show a IC50<10 nM. In the list below are described some data to the γ-secretase inhibition: […]
row,Structure (SMILES),IC50 [nM]
1,"O=C(NC1CC1)c1ccc(CN([C@@H]2CCC(F)(F)CNC2=O)S(=O)(=O)c2ccc(Cl)cc2)cc1 [Example 13, 4-{[(4-Chloro-benzenesulfonyl)-((R)-6,6-difluoro-2-oxo-azepan-3-yl)-amino]-methyl}-N-cyclopropyl-benzamide]",297
2,"O=C1NCCC(F)(F)C[C@H]1N(Cc1ccc(-c2ncn[nH]2)cc1F)S(=O)(=O)c1ccc(Cl)cc1 [Example 12, 4-Chloro-N-((R)-5,5-difluoro-2-oxo-azepan-3-yl)-N-[2-floro-4-(2H-[1,2,4]triazol-3-yl)-benzyl]-benzenesulfonamide]",6
3,"COc1ccc(CN([C@@H]2CC(F)(F)CCNC2=O)S(=O)(=O)CCC(F)(F)F)cn1 [Example 16, 3,3,3-Trifluoro-propane-1-sulfonic acid ((R)-5,5-difluoro-2-oxo-azepan-3-yl)-(6-methoxy-pyridin-3-ylmethyl)-amide]",150
4,"COc1ccc(CN([C@@H]2CC(F)(F)CCNC2=O)S(=O)(=O)c2ccc(Cl)s2)cn1 [Example 17, 5-Chloro-thiophene-2-sulfonic acid ((R)-5,5-difluoro-2-oxo-azepan-3-yl)-(6-methoxy-pyridin-3-ylmethyl)-amide]",110
5,"COc1ccc(CN([C@@H]2CC(F)(F)CCNC2=O)S(=O)(=O)c2ccc(Cl)cc2)c(F)c1F [Example 4, 4-Chloro-N-(2,3-difluoro-4-methoxy-benzyl)-N-((R)-5,5-difluoro-2-oxo-azepan-3-yl)-benzenesulfonamide]",2

# — patent US7501406B2, “Fluoro substituted 2-oxo-azepan derivatives” (Hoffmann-La Roche Inc., priority 2005, dated 2009)
